From a melting point compilation (Tetko et al.; mined from patent text by program, amines drawn as free bases though some values may be those of a salt)

Row | SMILES | melting point [°C]
1 | O=c1c2ccc(Cl)cc2[nH]c2c(=O)n(-c3ccc(Cl)cc3)nc(O)c12 | > 400
2 | Nc1nc2c(sc(=O)n2Cc2ccc(Cl)cc2)c(=O)[nH]1 | > 320
3 | CC(NC1(C(=O)O)CCCC1)C(=O)N1CCCC1C(=O)O (stereo not given) | 142 to 145
4 | CS(=O)c1ccc(-c2oncc2CCCO)cc1 (stereo not given) | 73 to 74
5 | CNC(=O)N(C)C(=O)N1CCN(c2ccccc2)CC1 | 79 to 80
6 | CC(=O)OCC(=O)C12OCOC1CC1C3CCC4=CC(=O)CCC4(C)C3(Cl)C(O)CC12C (stereo not given) | 231
7 | C=CCOc1cc(O)c(C#N)c(Cl)c1 | 175 to 176
8 | Cc1nc(N2CCc3ccccc3CC2)c(C#N)c(=O)n1C1CC1 | 177 to 179
9 | COc1ccc(-c2cc(C)c3nc(OC)ccc3c2)cc1 | 104 to 106
10 | COC(=O)Nc1nc2cc(S(=O)CC3CCCCC3)ccc2[nH]1 (stereo not given) | 272 to 274
11 | CC(C)(N)[C@@H]1CCN(c2cc3c(c(N)c2F)c(=O)c(C(=O)O)cn3C2CC2)C1 | > 300
12 | COc1ccc(CC#N)cc1S(N)(=O)=O | 173 to 177
13 | CCC(C)(CC)c1nnc(NC(=O)c2c(OC)cccc2OC)s1 | 208 to 210
14 | COc1ccc2c(c1)CNN=C2Cc1c(Cl)cncc1Cl | 181 to 183
15 | C[C@H](CN(C(=O)C1C2CCC1CC2)c1ccccn1)N1CCN(c2cccc3[nH]ccc23)CC1 (stereo not given in full) | 176 to 179
16 | COc1c(F)c(F)c(N)c2c(=O)c(C(=O)O)cn(C3CC3)c12 | 291 to 292
17 | Cc1c(C)c2c(c(C)c1NC(=O)CC(C)(C)C)C(c1ccc(C(C)C)c(OCCO)c1)CO2 (stereo not given) | 155 to 156
18 | O=S1(=O)c2ccccc2Cc2ccc(-c3nnn[nH]3)cc21 | 233
19 | O=C(O)Cc1ccc(C(=O)c2ccc(Cl)cc2)s1 | 165
20 | OC1(C#Cc2ccccc2Cc2ccccc2)CN2CCC1CC2 (stereo not given) | 156 to 157

Row | SMILES | melting point [°C]
21 | COc1ccc(/C=N/Nc2nc(=O)[nH]cc2F)cc1 | 202 to 208
22 | CC(=O)Nc1cccc(C#Cc2ccc([C@@H]3CC[C@@H]4CCCCN43)cc2)c1 (relative stereo) | 161 to 163
23 | CC(CO)Nc1c([N+](=O)[O-])cnc2ccccc12 (stereo not given) | 207 to 211
24 | COc1cc(OC)c(C=O)cn1 | 97 to 98
25 | O=C(CSc1n[nH]c(-c2ccccc2)n1)C12CC3CC(CC(C3)C1)C2 | 187 to 188
26 | Cn1nc(N)c2cc3ccc(O)cc3nc21 | 288 to 290
27 | OCc1cc(-c2ccc(Cl)cc2)nc2ccnn12 | 185 to 186
28 | COc1cc2c(cc1[N+](=O)[O-])N(C)C(=O)CNC2 | 145 to 149
29 | CC(C)Nc1nc2cc(F)c(F)c(F)c2n1[C@@H]1O[C@H](C)[C@@H](O)[C@H]1O | 175 to 178
30 | CC(N)c1cc(NC(=O)OC(C)(C)C)ccc1NC(=O)OC(C)(C)C (stereo not given) | 170
31 | CCOC(=O)c1nc2n(n1)-c1ccc([N+](=O)[O-])cc1C(c1ccccc1F)=NC2 | 165 to 167
32 | CN1C(=O)NCc2cccnc21 | 140 to 143
33 | Cc1cc(F)cc2nc(Cl)c(Cl)nc12 | 116 to 120
34 | C=CC1OC(=O)c2c(Oc3nc(OC)cc(OC)n3)cccc21 (stereo not given) | 94 to 97
35 | COc1cc(C=Cc2nc3c(c(=O)n(C)c(=O)n3C)n2C)cc(OC)c1 | 228 to 230
36 | CC(C)(C)C(=O)NC(=O)N1CC1C#N (stereo not given) | 136 to 138
37 | Cc1cccc(N(C)C(=S)Oc2ccc(Cl)c(C)c2)n1 | 134 to 136
38 | CCC12OC1C(=O)C(Nc1ncnc3cc(OC)c(OC)cc13)=CC2=O (stereo not given) | 202 to 204
39 | NC(=O)c1nnn(Cc2ccc(Sc3ccc(Cl)cc3)c(Cl)c2)c1N | 202 to 204
40 | CC(C)(C)OC(=O)Nc1ccc(F)nc1 | 112 to 113

Row | SMILES | melting point [°C]
41 | O=C(CC1CCCCC1)Nc1c(Cl)ccc2nc(N3CC[C@H](NCCc4nn[nH]n4)C3)ccc12 | 220 to 221
42 | CC(CCl)(CCl)c1cc(Cl)nnc1Cl | 92 to 94
43 | O=S(=O)(c1nc(-c2ccc(F)cc2)c(-c2cccs2)[nH]1)C(F)(F)C(F)F | 192 to 193
44 | O=C1NCCC1=Cc1ccccc1OCC(O)CN1CCC(c2ccc3c(c2)CCCC3)CC1 (stereo not given) | 157 to 159
45 | CCCN(c1ncnc2c1ncn2C1OC(CO)C(O)C1O)n1cccc1 (stereo not given) | 136 to 138
46 | Cc1ccc(C(=O)c2cccc3c2CCC3=O)cc1 | 105 to 108
47 | Cc1ccc2nc(-c3ccc4oc(=O)n(C)c4c3)c(C)n2c1 | 247 to 249
48 | Cc1nc(C(=O)NC23CC4CC(CC(O)(C4)C2)C3)c(C)n1-c1ccccc1 | 215 to 220
49 | CCOc1c(C23OCC(C)(C)C2(C(C)(C)C)OO3)sc2ccc(O[Si](C)(C)C(C)(C)C)cc12 (stereo not given) | 106 to 107
50 | CNN(C)C(=S)Nc1ccc(Cl)cc1 | 103 to 104
51 | Cn1ccnc1CC(O)C(F)(F)F (stereo not given) | 146 to 148
52 | CNS(=O)(=O)c1cc(C)sc1CC(=O)O | 109
53 | Cc1c(Cl)c(=O)[nH][nH]c1=O | 305 to 310
54 | CC#CCOc1ccc(S(=O)(=O)NC)cc1 | 78 to 80
55 | Cc1cc(C(=O)NS(=O)(=O)Cc2ccccc2C(F)(F)F)nc(Cl)n1 | 198 to 199
56 | C[Si](C)(CC[Si](C)(C)c1ccc(C(F)(F)F)cc1)c1ccc(C(F)(F)F)cc1 | 58 to 59
57 | CC1(C)C(=O)c2c(cc(O)c(Cl)c2Cl)C1c1ccccc1 (stereo not given) | 259 to 262
58 | COc1cc(-n2nc3ccc(Cl)cn3c2=O)c(F)cc1Cl | 140 to 142

Continued, values first:

Row | melting point [°C] | SMILES
59 | 250 to 252 | O=C(O)COc1c(Br)cc(-c2c3ccccc3c(Br)c3oc4ccccc4c23)cc1Br
60 | 48 to 50 | CCCCCCCCCCCCCCCCCCOc1cc(OCCCCC(=O)OC)cc(N(CC(=O)OCc2ccccc2)CC(=O)OCc2ccccc2)c1
61 | 140 to 142 | CC(C)(C)OC(=O)C[C@@H]1C[C@@H](COc2ccc(-c3ccc(C#N)c(Cl)c3)cc2)NC1=O
62 | 156 | CC#CCOc1ccc(SC(C(=O)NO)c2ccc(OC)cc2)cc1 (stereo not given)
63 | 145 | COc1cc(-c2nc3ccc(OCCN4CCCCC4)cc3n2Cc2ccccc2Br)cc(OC)c1OC
64 | 160 to 164 | O=C1C(c2cccc(C(F)(F)F)c2)=C(NC2CC2)OC1c1ccccc1 (stereo not given)
65 | 195 to 196 | CCOC(=O)c1c(Cn2ccnn2)nc2cc(OC)c(OC)cc2c1-c1ccc(OC)c(OC)c1
66 | 168 to 170 | CN1C(O)=C(C(=O)Nc2ccccc2Cl)c2ccsc2S1(=O)=O
67 | 102 to 105 | Cn1cc(C2=C(c3cn(C4CN(C(c5ccccc5)c5ccccc5)C4)c4ccccc34)C(=O)NC2=O)c2ccccc21
68 | 47.2 to 47.7 | CC[C@H](C)CCCCc1cnc(-c2ccc(OC(C)C)cc2)nc1
69 | 242 to 243 | O=C(NC1CC1)c1[nH]c2ccc(Cl)cc2c1S(=O)(=O)c1ccccc1
70 | 198 to 199 | C[C@@H](n1cnc2cc(Oc3ccc(Cl)cc3)ccc2c1=O)[C@](O)(Cn1cncn1)c1ccc(F)cc1F
71 | 122 to 123 | C=Cc1ccc2nc(-c3ccccc3)c(-c3ccccc3)nc2c1
72 | 193 to 197 | CN(C)CC(=O)N1CCN(Cc2ccc3c(c2)Cc2c(-c4cccs4)n[nH]c2-3)CC1
73 | 105 to 106 | Cc1cc(S(=O)(=O)NCC(O)(CO)c2ccccc2)ccc1Cl (stereo not given)
74 | 188 to 200 | O=C(N/C(=C\c1c[nH]c2ccccc12)C(=O)NCCc1ccccn1)OC1C2CC3CC(C2)CC1C3 (stereo not given)
75 | 192 to 195 | O=C(O)c1ccc(CN2C(=O)C3(COc4cc5c(cc43)OCCO5)c3ccccc32)o1 (stereo not given)
76 | 200 to 202 | O=C(Nc1cc2ncc(CN3CCCC3)cc2cc1F)c1ccc(-c2ccc(F)cc2)cc1F
77 | 219 to 221 | N#Cc1ccc(NC(=O)NCCCN2CCN(CCCc3ccc(Cl)cc3)CC2)cc1
78 | 185 to 189 | CC(C)C(=O)N1CC(OCc2ccccc2)C(OCc2ccccc2)C(OCc2ccccc2)C1COCc1ccccc1 (stereo not given)
79 | 120 to 123 | CC(=O)Oc1ccccc1N1CCN(CCCNC(=O)c2cccc3c(=O)c(C)c(-c4ccccc4)oc23)CC1

Row | melting point [°C] | SMILES
80 | 111 to 113 | Cc1c(-c2cccnc2)n(CCCCCC(=O)O)c2ccccc12
81 | 108 to 110 | CC(=O)c1cc(F)c(OCCOc2ccc3ccccc3c2)c(F)c1
82 | 163 to 165 | N=C(NC=Cc1ccc([N+](=O)[O-])cc1)c1ccccc1
83 | 44 to 45.5 | COc1ccc(C(=O)Cc2cccs2)cc1
84 | 178 to 182 | COc1ccc2c(c1)c(/C=C/C(=O)c1ccncc1)cn2C
85 | 225 to 227 | CCn1c(C(O)(c2cccc(F)c2)c2cccc(F)c2)nc(-c2ccncc2)c1-c1ccc(Cl)cc1
86 | 100 to 101 | O=C(O)CCC(=NOCc1ccc(OCc2cc(-c3ccccc3)on2)cc1)c1ccccc1
87 | 102 | CCCc1c(O)ccc2c1OC(C)(CCC(=O)OC)CC2=O (stereo not given)
88 | 80 to 81.2 | OCCCCCCCCCCCCCCCCNCCO
89 | 83 to 88 | COc1ccc(I)c(OCC(O)CNCCc2ccc(OC)c(OC)c2)c1 (stereo not given)
90 | 118 to 119 | O=C(CCCc1ccccc1)c1cc(O)c(O)c([N+](=O)[O-])c1
91 | 132 to 133 | CC(=O)OC1CSC(Oc2cc(-c3ccc(C#N)cc3)cnc2F)C(OC(C)=O)C1OC(C)=O (stereo not given)
92 | 154 | CC(C)NC(=O)c1nc(-c2ccccc2)c(-c2ccc(=O)n(C)n2)s1
93 | 89 to 91 | CCCCCCCC(Oc1ccc(C(C)CC)cc1)C(=O)Nc1c(-c2ccccc2)nc2ccccc2c1C(=O)OC (stereo not given)
94 | 135 to 137 | CCCOC(Cc1ccc(OCCc2nc(C(C)(C)C)oc2C)c2ccccc12)C(=O)O (stereo not given)
95 | 77 to 79 | CCCCCCCN(CCCCCS(=O)c1nc(-c2ccccc2)c(-c2ccccc2)[nH]1)C(=O)Nc1ccc(F)cc1F (stereo not given)
96 | 142 to 145 | CNC(=O)OCCN1C(=O)c2ccccc2C1=O
97 | 100 to 102 | COc1cccc(Cc2cc(-c3ccccc3)c(-c3ccccc3)s2)c1
98 | 261 to 262 | CCNC(=O)c1ccccc1Nc1nc(Nc2ccc3c(c2)C(C)(C)CNC(=O)C3)ncc1Cl
99 | 161 | O=C(NCCO)c1ccc(OCC2(O)CCN(Cc3ccccc3)CC2)cc1
100 | 160 to 162 | Cn1c2ccccc2c(=O)c2c(-c3ccccc3NC(=O)C(C)(C)C)cccc21
